Assay [1] concerns male C57BL/6 mice. In words: Blood glucose lowering abilities after single oral administration in male C57BL/6 mouse. The format is in vivo. The settings on record: 30 mg/kg single oral dose, fed ad libitum, medium: distilled water. The procedure: The glucokinase activators according to the present invention were orally administered in a single dose in the amount of 30 mg/kg body weight to male C57BL/6 mice for 24 h. The media were selected depending on their solubilities from distilled water, pH 1.2 HCl buffer solution, 0.5% methyl cellulose distilled water solution, 10% Gelucire/pH 1.2 HCl buffer solution (1/1). The glucokinase activators were dissolved in the selected media to the medium volume of 0.1 ml/10 g body weight on the basis of the body weight measured on the day of experiment.
Blood glucose was measured by cutting the tail vein before 1 h (time=−1) from the measurement of blood glucose, collecting blood from the tail vein at immediately before the administration of the glucokinase activator (time=0), and at 1, 2, 4, 8, 12, 24 h after administration, loading on the automatic glucometer (Accu-Chek® Active, Roche, USA), dropping 5 μl of the blood to a yellow pad of the Accu-Chek® Active glucose strip, and recording the measured value.
Mice involved in the experiment were divided into groups (n=10, in the case of media group n=4) on one day before the experiment so that each group has uniform average and standard deviation for blood glucose after 4 hour fasting. Mice were fed ad libitum.
The blood glucose lowering abilities in % of the representative compounds with respect to the 100% of media control were shown in the following Table 2.

Assay [2] concerns Glucokinase known as hexokinase IV (human GK isoform 1, pancreas form and human GK isoform 2, liver form). In words: Glucokinase enzymatic activity assay (G6PDH-coupled, NADH absorbance at 340 nm). The settings on record: 5 mM glucose, 1 mM ATP, 37 nM GK, 10 min at room temperature. The format is biochemical. Summed up: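 His-tagged human GK isoform 1 (pancreas) or 2 (liver), E. coli-expressed and Ni-purified, 37 nM, with 5 mM glucose, 1 mM ATP, 1 mM NAD and G6PDH in 25 mM Hepes/KCl, 2 mM MgCl2, 1 mM DTT. Ran 10 min at room temperature, read as NADH at 340 nm. AC1.5 is the compound concentration giving 1.5-fold activity.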

For the compound `Cc1cc(NC2CCCC2)c2[nH]c(C3=N[C@H](CCC(=O)O)CS3)cc2c1` [Example 158, 3-[(R)-2-(7-cyclopentylamino-5-methyl-1H-indol-2-yl)-4,5-dihydro-thiazol-4-yl]-propionic acid], the “Hypoglycemic ability (% medium): blood glucose AUC for 24 h with respect to 100% of media control” value (from here on “Hypoglycemic ability (% medium)”) in assay [1] came to 66%. Further, in assay [2], the “AC1.5 (the compound concentration at which the enzymatic activity is increased by 1.5 times)” value was found to be 16 nM.

`O=C(O)CC[C@@H]1CSC(c2cc3cc(Oc4ccccc4)cc(NC4CCCC4)c3[nH]2)=N1` [Example 159, 3-[(R)-2-(7-cyclopentylamino-5-phenoxy-1H-indol-2-yl)-4,5-dihydro-thiazol-4-yl]-propionic acid]: the “Hypoglycemic ability (% medium)” value in assay [1] was found to be 63%. In addition, the “AC1.5 (the compound concentration at which the enzymatic activity is increased by 1.5 times)” value in assay [2] came to 17 nM.

With `O=C(O)C[C@@H]1CSC(c2cc3cc(Cl)cc(NC4CCCC4)c3[nH]2)=N1` [Example 27, [(R)-2-(5-chloro-7-cyclopentylamino-1H-indol-2-yl)-4,5-dihydro-thiazol-4-yl]acetic acid], in assay [1], the “Hypoglycemic ability (% medium)” value stood at 75%. Also, in assay [2], the “AC1.5 (the compound concentration at which the enzymatic activity is increased by 1.5 times)” value stood at 4 nM.

With `O=C(CO)N1CCN(CC[C@@H]2CSC(c3cc4cc(Cl)cc(NC5CCCC5)c4[nH]3)=N2)CC1` [Example 99, 1-(4-{2-[(R)-2-(5-chloro-7-cyclopentylamino-1H-indol-2-yl)-4,5-dihydro-thiazol-4-yl]-ethyl}-piperazin-1-yl)-2-hydroxy-ethanone], in assay [1], the “Hypoglycemic ability (% medium)” value was 72%. The “AC1.5 (the compound concentration at which the enzymatic activity is increased by 1.5 times)” value in assay [2] was 5 nM.

Take `O=C(O)C[C@@H]1CSC(c2cc3cccc(NC4CCCC4)c3[nH]2)=N1` [Example 42, [(R)-2-(7-cyclopentylamino-1H-indol-2-yl)-4,5-dihydro-thiazol-4-yl]acetic acid]: in assay [1], the “Hypoglycemic ability (% medium)” value was determined as 57%.

Consider `CCOc1cc(NC2CCCC2)c2[nH]c(C3=N[C@H](CCC(=O)O)CS3)cc2c1` [Example 167, 3-[(R)-2-(7-cyclopentylamino-5-ethoxy-1H-indol-2-yl)-4,5-dihydro-thiazol-4-yl]-propionic acid], for which the “Hypoglycemic ability (% medium)” value in assay [1] worked out at 64%. For the same compound, in assay [2], the “AC1.5 (the compound concentration at which the enzymatic activity is increased by 1.5 times)” value is on record as 28 nM.

On to `O=C(O)CC[C@@H]1CSC(c2cc3cccc(NC4CCCC4)c3[nH]2)=N1` [Example 164, 3-[(R)-2-(7-cyclopentylamino-1H-indol-2-yl)-4,5-dihydro-thiazol-4-yl]-propionic acid], for which the “Hypoglycemic ability (% medium)” value in assay [1] is reported as 73%. Moreover, the “AC1.5 (the compound concentration at which the enzymatic activity is increased by 1.5 times)” value in assay [2] worked out at 25 nM.

For the compound `O=C(O)C[C@@H]1CSC(c2cc3cccc(Oc4ccccc4)c3[nH]2)=N1` [Example 174, [(R)-2-(7-phenoxy-1H-indol-2-yl)-4,5-dihydro-thiazol-4-yl]-acetic acid], in assay [1], the “Hypoglycemic ability (% medium)” value was determined as 51%.

In the case of `O=C(O)C[C@@H]1CSC(c2cc3cc(Br)cc(NC4CCCC4)c3[nH]2)=N1` [Example 33, [(R)-2-(5-bromo-7-cyclopentylamino-1H-indol-2-yl)-4,5-dihydro-thiazol-4-yl]acetic acid], the “Hypoglycemic ability (% medium)” value in assay [1] was found to be 81%.

With `O=C(O)C[C@@H]1CSC(c2cc3cc(F)cc(NC4CCCC4)c3[nH]2)=N1` [Example 37, [(R)-2-(7-cyclopentylamino-5-fluoro-1H-indol-2-yl)-4,5-dihydro-thiazol-4-yl]acetic acid], in assay [1], the “Hypoglycemic ability (% medium)” value turned out to be 67%.

As to `CC(=O)N1CCN(CC[C@@H]2CSC(c3cc4cc(Cl)cc(NC5CCCC5)c4[nH]3)=N2)CC1` [Example 97, 1-(4-{2-[(R)-2-(5-chloro-7-cyclopentylamino-1H-indol-2-yl)-4,5-dihydro-thiazol-4-yl]-ethyl}-piperazin-1-yl)-ethanone], in assay [2], the “AC1.5 (the compound concentration at which the enzymatic activity is increased by 1.5 times)” value turned out to be 6 nM.

Take `O=C(O)C[C@@H]1CSC(c2cc3cc(Cl)cc(NC4CCOCC4)c3[nH]2)=N1` [Example 31, {(R)-2-[5-chloro-7-(tetrahydro-pyran-4-ylamino)-1H-indol-2-yl]-4,5-dihydro-thiazol-4-yl}-acetic acid]: in assay [2], the “AC1.5 (the compound concentration at which the enzymatic activity is increased by 1.5 times)” value amounted to 16 nM.

Consider `CCS(=O)(=O)N1CCN(CC[C@@H]2CSC(c3cc4cc(Cl)cc(NC5CCCC5)c4[nH]3)=N2)CC1` [Example 98, (5-chloro-2-{(R)-4-[2-(4-ethanesulfonyl-piperazin-1-yl)-ethyl]-4,5-dihydro-thiazol-2-yl}-1H-indol-7-yl)-cyclopentyl-amine], for which the “AC1.5 (the compound concentration at which the enzymatic activity is increased by 1.5 times)” value in assay [2] came out at 7 nM.

Turning to `OC[C@@H]1CSC(c2cc3cc(Cl)cc(NC4CCOCC4)c3[nH]2)=N1` [Example 8, {(R)-2-[5-chloro-7-(tetrahydro-pyran-4-ylamino)-1H-indol-2-yl]-4,5-dihydro-thiazol-4-yl}-methanol], the “AC1.5 (the compound concentration at which the enzymatic activity is increased by 1.5 times)” value in assay [2] came out at 32 nM.

Consider `O=C1CN(CC[C@@H]2CSC(c3cc4cc(Cl)cc(NC5CCCC5)c4[nH]3)=N2)CCN1` [Example 102], for which the “AC1.5 (the compound concentration at which the enzymatic activity is increased by 1.5 times)” value in assay [2] worked out at 7 nM.

As for `O=C(O)CC[C@@H]1CSC(c2cc3cc(Br)cc(NC4CCCC4)c3[nH]2)=N1` [Example 163, 3-[(R)-2-(5-bromo-7-cyclopentylamino-1H-indol-2-yl)-4,5-dihydro-thiazol-4-yl]-propionic acid], in assay [2], the “AC1.5 (the compound concentration at which the enzymatic activity is increased by 1.5 times)” value is 5 nM.

For `COC(=O)C[C@@H]1CSC(c2cc3cc(OC)cc(NC4CCCC4)c3[nH]2)=N1` [Example 47, [(R)-2-(7-cyclopentylamino-5-methoxy-1H-indol-2-yl)-4,5-dihydro-thiazol-4-yl]-acetic acid methyl ester], the “AC1.5 (the compound concentration at which the enzymatic activity is increased by 1.5 times)” value in assay [2] was determined as 27 nM.

Consider `O=C1CN(CC[C@@H]2CSC(c3cc4cc(F)cc(NC5CCOCC5)c4[nH]3)=N2)CCN1` [Example 139, 4-(2-{(R)-2-[5-fluoro-7-(tetrahydro-pyran-4-ylamino)-1H-indol-2-yl]-4,5-dihydro-thiazol-4-yl}-ethyl)-piperazin-2-one], for which the “AC1.5 (the compound concentration at which the enzymatic activity is increased by 1.5 times)” value in assay [2] came out at 38 nM.

For `OC[C@@H]1CSC(c2cc3cccc(NC4CCOC4)c3[nH]2)=N1` (stereo partly drawn) [Example 3, {(R)-2-[7-(tetrahydro-furan-3-ylamino)-1H-indol-2-yl]-4,5-dihydro-thiazol-4-yl}-methanol], in assay [2], the “AC1.5 (the compound concentration at which the enzymatic activity is increased by 1.5 times)” value amounted to 184 nM.

As to `COc1cc(NC2CCOCC2)c2[nH]c(C3=N[C@H](CC(=O)O)CS3)cc2c1` [Example 51, {(R)-2-[5-methoxy-7-(tetrahydro-pyran-4-ylamino)-1H-indol-2-yl]-4,5-dihydro-thiazol-4-yl}-acetic acid], the “AC1.5 (the compound concentration at which the enzymatic activity is increased by 1.5 times)” value in assay [2] amounted to 167 nM.

Consider `OC[C@@H]1CSC(c2cc3cc(F)cc(NC4CCOCC4)c3[nH]2)=N1` [Example 6, {(R)-2-[5-fluoro-7-(tetrahydro-pyran-4-ylamino)-1H-indol-2-yl]-4,5-dihydro-thiazol-4-yl}-methanol], for which, in assay [2], the “AC1.5 (the compound concentration at which the enzymatic activity is increased by 1.5 times)” value was found to be 31 nM.
